In patent publication US20220144839A1, “INDOLE AHR INHIBITORS AND USES THEREOF” (Ikena Oncology, Inc., priority 2018, published 2022):

What follows are compounds tested against T1, AHR (UniProt P35869) (assay: DRE-Luciferase Reporter Assay (Alternate Method), Example 1B). Settings: concentration which inhibits half of the luciferase activity induced by AHR activating ligand; DRE-luciferase reporter cell line.
T1 sequence (P35869 1-848): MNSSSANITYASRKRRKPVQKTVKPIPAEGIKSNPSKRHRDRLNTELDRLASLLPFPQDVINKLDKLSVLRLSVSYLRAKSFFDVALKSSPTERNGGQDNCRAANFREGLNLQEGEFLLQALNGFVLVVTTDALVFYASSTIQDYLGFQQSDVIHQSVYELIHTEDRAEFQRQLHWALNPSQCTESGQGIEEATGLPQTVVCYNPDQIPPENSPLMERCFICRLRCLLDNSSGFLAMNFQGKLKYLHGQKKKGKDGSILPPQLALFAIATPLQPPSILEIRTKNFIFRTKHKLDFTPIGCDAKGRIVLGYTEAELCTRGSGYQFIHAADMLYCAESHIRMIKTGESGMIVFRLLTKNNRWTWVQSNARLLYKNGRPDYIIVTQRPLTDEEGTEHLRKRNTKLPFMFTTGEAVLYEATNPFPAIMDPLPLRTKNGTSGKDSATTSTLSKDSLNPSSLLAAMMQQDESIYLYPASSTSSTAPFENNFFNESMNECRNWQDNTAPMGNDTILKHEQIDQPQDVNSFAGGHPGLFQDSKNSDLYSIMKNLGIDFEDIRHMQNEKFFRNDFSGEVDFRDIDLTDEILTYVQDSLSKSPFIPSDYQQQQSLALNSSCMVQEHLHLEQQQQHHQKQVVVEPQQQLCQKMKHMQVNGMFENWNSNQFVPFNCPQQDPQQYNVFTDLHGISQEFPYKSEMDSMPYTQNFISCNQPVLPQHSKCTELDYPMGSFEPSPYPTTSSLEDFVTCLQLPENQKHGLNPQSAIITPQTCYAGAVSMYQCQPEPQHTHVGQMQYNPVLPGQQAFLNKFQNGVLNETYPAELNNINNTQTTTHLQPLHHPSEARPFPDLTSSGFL
Assay type: cell-based
Experimental: AHR binds to Dioxin Responsive Elements (DRE) upstream of genes that it activates. One measure of AHR activity is activation of a reporter gene, such as luciferase, downstream of one or multiple DRE elements. Luciferase activity will reflect activation and inhibition of AHR in the cells expressing his reporter.
Murine Hepa1-6 or Hepa-1c1c7 or other murine cell line with a DRE-luciferase reporter either stably or transiently transfected were plated in media in plates (96-well, 384-well or other plates) and incubated overnight at 37° C. in a C02 incubator or compound and agonist were added at the time of plating. Likewise, human HepG2 or other human cell line with a DRE-luciferase reporter either stably or transiently transfected were plated in media in plates (96-well, 384-well or other plates) and incubated overnight at 37° C. in a C02 incubator or compound and agonist were added at the time of plating.
At the time that cells are plated or following incubation overnight, an AHR activating ligand, such as TCDD, kynurenine, ITE (2-(1H-indole-3-ylcarbonyl)-4-thiazolecarboxylic methyl ester), VAF347, BNF (beta-naphthoflavone), FICZ (6-formylindolo(3,2-b) carbazole or other AHR ligands, was added with or without AHR antagonist.
Cells were incubated for 4, 15 or 24 hours or another time point and then lysed for determination of luciferase activity as a read-out of the AHR activation or inhibition. Luciferase was measured with a commercial kit such as the Promega Luciferase kit or any kit or reagents that provide the luciferin substrate for measuring luciferase activity. The level of luciferase with only activating ligand added was the maximum signal while the luciferase with no ligand was the minimum signal. IC50 values were determined as the concentration which inhibits half of the luciferase activity.
With CC(C)c1cnn2c(N[C@H]3CCc4[nH]ncc4C3)nc(-c3cncc(F)c3)nc12 [Compound I-7b, 2-(5-fluoro-3-pyridyl)-8-isopropyl-N-[(5S)-4,5,6,7-tetrahydro-1H-indazol-5-yl]pyrazolo[1,5-a][1,3,5]triazin-4-amine] the IC50 was 1000 to 1500 nM. COc1cncc(-c2nc(N[C@@H]3CCc4[nH]c5ccccc5c4C3)n3ncc(C(C)C)c3n2)c1 [Compound I-3, (3R)—N-[8-Isopropyl-2-(5-methoxy-3-pyridyl)pyrazolo[1,5-a][1,3,5]triazin-4-yl]-2,3,4,9-tetrahydro-1H-carbazol-3-amine] was tested, and the IC50 was > 1500 nM. With C=C(C)c1cnn2c(N[C@@H]3CCc4[nH]c5ccccc5c4C3)nc(-c3cncc(F)c3)nc12 [Compound I-11, (3R)—N-[2-(5-Fluoro-3-pyridyl)-8-isopropenyl-pyrazolo[,5-a][1,3,5]triazin-4-yl]-2,3,4,9-tetrahydro-1H-carbazol-3-amine] the IC50 was < 500 nM. With COC[C@H](C)c1cnn2c(N[C@@H]3CCc4[nH]c5ccccc5c4C3)nc(-c3cncc(F)c3)nc12 [Compound I-64a, (3R)—N-[2-(5-Fluoro-3-pyridyl)-8-[(1R)-2-methoxy-1-methyl-ethyl]pyrazolo[1,5-a][1,3,5]triazin-4-yl]-2,3,4,9-tetrahydro-1H-carbazol-3-amine] the IC50 was < 500 nM. For CNc1cnn2c(N[C@@H]3CCc4[nH]c5ccccc5c4C3)nc(-c3cncc(F)c3)nc12 [Compound I-51, 2-(5-Fluoro-3-pyridyl)-N8-methyl-N4-[(3R)-2,3,4,9-tetrahydro-1H-carbazol-3-yl]pyrazolo[1,5-a][1,3,5]triazine-4,8-diamine], the IC50 was < 500 nM. In the case of CC(C)c1cnn2c(N[C@@H]3CNc4ncncc4C3)nc(-c3cncc(F)c3)nc12 [Compound I-60b, (6S)—N-[2-(5-fluoro-3-pyridyl)-8-isopropyl-pyrazolo[1,5-a][1,3,5]triazin-4-yl]-5,6,7,8-tetrahydropyrido[2,3-d]pyrimidin-6-amine], the IC50 is reported as < 500 nM. With CC(C)c1cnn2c(NCCCCO)nc(-c3cncc(F)c3)nc12 [Compound I-39, 4-[[2-(5-Fluoro-3-pyridyl)-8-isopropyl-pyrazolo[1,5-a][1,3,5]triazin-4-yl]amino]butan-1-ol] the IC50 was > 1500 nM. Nc1cnn2c(N[C@@H]3CCc4[nH]c5ccccc5c4C3)nc(-c3cncc(F)c3)nc12 [Compound I-31, 2-(5-Fluoro-3-pyridyl)-N4-[(3R)-2,3,4,9-tetrahydro-1H-carbazol-3-yl]pyrazolo[1,5-a][1,3,5]triazine-4,8-diamine] was tested, and the IC50 was < 500 nM. For C[C@@H](O)c1cnc2c(N[C@@H]3CCc4[nH]c5ccccc5c4C3)nc(-c3cncc(F)c3)nn12 [Compound I-42b, (1R)-1-[2-(5-Fluoro-3-pyridyl)-4-[[(3R)-2,3,4,9-tetrahydro-1H-carbazol-3-yl]amino]imidazo[2,1-f][1,2,4]triazin-7-yl]ethanol], the IC50 was < 500 nM. With CC(C)c1cnn2c(N[C@@H]3CCc4c(ccnc4N)C3)nc(-c3cncc(F)c3)nc12 [Compound I-63a, (6R)—N6-[2-(5-Fluoro-3-pyridyl)-8-isopropyl-pyrazolo[1,5-a][1,3,5]triazin-4-yl]-5,6,7,8-tetrahydroisoquinoline-1,6-diamine] the IC50 was > 1500 nM. For Fc1cncc(-c2nc(N[C@@H]3CCc4[nH]c5ccccc5c4C3)n3ncc(N4CCOCC4)c3n2)c1 [Compound I-38, (3R)—N-[2-(5-Fluoro-3-pyridyl)-8-morpholino-pyrazolo[1,5-a][1,3,5]triazin-4-yl]-2,3,4,9-tetrahydro-1H-carbazol-3-amine], the IC50 was < 500 nM. With C[C@H](NC(=O)N1CCN(C)CC1)c1cnn2c(N[C@@H]3CCc4[nH]c5ccccc5c4C3)nc(-c3cncc(F)c3)nc12 [Compound I-61a, N-[(1S)-1-[2-(5-Fluoro-3-pyridyl)-4-[[(3R)-2,3,4,9-tetrahydro-1H-carbazol-3-yl]amino]pyrazolo[1,5-a][1,3,5]triazin-8-yl]ethyl]-4-methyl-piperazine-1-carboxamide] the IC50 was < 500 nM. For [2H]C([2H])([2H])C(c1cnn2c(N[C@@H]3CCc4[nH]c5ccccc5c4C3)nc(-c3cncc(F)c3)nc12)C([2H])([2H])[2H] [Compound I-59, (3R)—N-[2-(5-Fluoro-3-pyridyl)-8-[2,2,2-trideuterio-1-(trideuteriomethyl)ethyl]pyrazolo[1,5-a][1,3,5]triazin-4-yl]-2,3,4,9-tetrahydro-1H-carbazol-3-amine], the IC50 was < 500 nM. In the case of CC(C)c1cnn2c(N[C@@H]3CCc4[nH]c5cccc(O)c5c4C3)nc(-c3cncc(F)c3)nc12 [Compound I-29b, (6R)-6-[[2-(5-Fluoro-3-pyridyl)-8-isopropyl-pyrazolo[1,5-a][1,3,5]triazin-4-yl]amino]-6,7,8,9-tetrahydro-5H-carbazol-4-ol], the IC50 is reported as > 1500 nM. In the case of CC(C)c1cnn2c(N[C@@H]3CCc4c(cc[nH]c4=O)C3)nc(-c3cncc(F)c3)nc12 [Compound I-66a, (6R)-6-[[2-(5-Fluoro-3-pyridyl)-8-isopropyl-pyrazolo[1,5-a][1,3,5]triazin-4-yl]amino]-5,6,7,8-tetrahydro-2H-isoquinolin-1-one], the IC50 is reported as > 1500 nM. With CC(C)c1cnn2c(N[C@H]3CCc4[nH]c5ccccc5c4C3)nc(-c3cncc(F)c3)nc12 [Compound I-47, (3S)—N-[2-(5-Fluoro-3-pyridyl)-8-isopropyl-pyrazolo[1,5-a][1,3,5]triazin-4-yl]-2,3,4,9-tetrahydro-1H-carbazol-3-amine] the IC50 was < 500 nM. Cc1ccnc2c(N[C@@H]3CCc4[nH]c5ccccc5c4C3)nc(-c3cncc(F)c3)nc12 [Compound I-22, (3R)—N-[2-(5-fluoro-3-pyridyl)-8-methyl-pyrido[3,2-d]pyrimidin-4-yl]-2,3,4,9-tetrahydro-1H-carbazol-3-amine] was tested, and the IC50 was < 500 nM. For CC(C)c1cnn2c(N[C@@H]3CCc4[nH]ncc4C3)nc(-c3cncc(F)c3)nc12 [Compound I-7a, 2-(5-fluoro-3-pyridyl)-8-isopropyl-N-[(5R)-4,5,6,7-tetrahydro-1H-indazol-5-yl]pyrazolo[1,5-a][1,3,5]triazin-4-amine], the IC50 was > 1500 nM. For CC(C)c1cnn2c(N[C@H]3CCc4[nH]c5ccc(O)cc5c4C3)nc(-c3cncc(F)c3)nc12 [Compound I-34a, (6S)-6-[[2-(5-Fluoro-3-pyridyl)-8-isopropyl-pyrazolo[1,5-a][1,3,5]triazin-4-yl]amino]-6,7,8,9-tetrahydro-5H-carbazol-3-ol], the IC50 was > 1500 nM. In the case of CC(C)c1cnn2c(N[C@@H]3CCc4[nH]c5ccccc5c4C3)nc([C@H]3CCCOC3)nc12 [Compound I-15b, (3R)—N-[8-isopropyl-2-[(3R)-tetrahydropyran-3-yl]pyrazolo[1,5-a][1,3,5]triazin-4-yl]-2,3,4,9-tetrahydro-1H-carbazol-3-amine], the IC50 is reported as > 1500 nM. For Fc1cncc(-c2nc(N[C@@H]3CCc4[nH]c5ccccc5c4C3)n3nc4c(c3n2)CNCC4)c1 [Compound I-50, 2-(5-Fluoro-3-pyridyl)-N-[(3R)-2,3,4,9-tetrahydro-1H-carbazol-3-yl]-7,8,9,10-tetrahydropyrido[2,3]pyrazolo[2,4-c][1,3,5]triazin-4-amine], the IC50 was > 1500 nM. In the case of O[C@@H](c1cnn2c(N[C@@H]3CCc4[nH]c5ccccc5c4C3)nc(-c3cncc(F)c3)nc12)C(F)(F)F [Compound I-41b, (1S)-2,2,2-trifluoro-1-[2-(5-fluoro-3-pyridyl)-4-[[(3R)-2,3,4,9-tetrahydro-1H-carbazol-3-yl]amino]pyrazolo[1,5-a][1,3,5]triazin-8-yl]ethanol], the IC50 is reported as < 500 nM. With Cc1cnc2c(N[C@@H]3CCc4[nH]c5ccccc5c4C3)nc(-c3cncc(F)c3)nc2c1 [Compound I-14, (3R)—N-[2-(5-fluoro-3-pyridyl)-7-methyl-pyrido[3,2-d]pyrimidin-4-yl]-2,3,4,9-tetrahydro-1H-carbazol-3-amine] the IC50 was 1000 to 1500 nM.
